System: priming of allogeneic T cell responses
Assay: MLR with splenocytes from inhibitor-treated mice as stimulators
Type: in vivo, mouse
Source text: FACS quantitation of Mac1^+Gr1^+ MIR cells in spleen (A) and lymph node (B) of C57BL/6 mice treated with the SHIP1 inhibitor (Compound), vehicle (Vehicle) or unmanipulated controls (Normal) as indicated. (C) Mixed-Leukocyte-Reactions (MLR) where splenocytes from SHIP1 inhibitor-treated C57BL6 (H2b) mice were used as stimulators for BALB/C (H2d) responders. In parallel splenocytes from either unmanipulated (Normal) or Vehicle treated C57BL6 mice were used as positive controls for the MLR. […] (D) Human PBMC were pre-treated for 24 hr with 3α-aminocholestane (Compound) or vehicle, irradiated and then used as stimulators for untreated PBMC from a different donor in a one-way MLR. [BALB/C=responder splenocytes not mixed with BL6 stimulators; Stim=irradiated, SHIP1 inhibitor-treated human PBMC absent responder PBMC; Resp=human PBMC responders absent allogeneic stimulators; Media, media to which only [3H]thymidine was added]. […] (E) SHIP1 inhibition increases circulating granulocyte/neutrophil numbers. Mice were treated daily for 7 days with 60 μM SHIP1 inhibitor (Compound), its vehicle (Vehicle) or were unmanipulated (Normal). Absolute peripheral blood granulocyte numbers were determined by an automated blood cell analyzer. […]

Row | Structure (SMILES) | ability of splenocytes from treated mice to stimulate allogeneic T cell responses (H2b mice treated daily i.p. 60 μM for 7 days, H2d responder splenocytes) | allogeneic T cell priming by splenocytes from treated mice (splenocytes from three NSC13480 treated mice as stimulators, MHC mismatched responders)
1 | CC(C)CCC[C@@H](C)[C@H]1CC[C@H]2[C@@H]3CC[C@H]4C[C@H](N)CC[C@]4(C)[C@H]3CC[C@]12C [NSC23922, (3R,5S,8R,9S,10S,13R,14S,17R)-10,13-dimethyl-17-[(2R)-6-methylheptan-2-yl]-2,3,4,5,6,7,8,9,11,12,14,15,16,17-tetradecahydro-1H-cyclopenta[a]phenanthren-3-amine] | profoundly impaired | 
2 | OC(c1cc(-c2ccccc2)nc2c1ccc1ccccc12)C1CCCCN1 (centres unmarked) [NSC13480, (2-phenylbenzo[h]quinolin-4-yl)-piperidin-2-ylmethanol] |  | profound inhibition

From patent publication US9006221B2, “Method of modulating ship activity” (H. Lee Moffitt Cancer Center and Reserach Institute, Inc., priority 2008, dated 2015)
